Assay results: PubChem BioAssay AID2006 (Sanford-Burnham Center for Chemical Genomics, 2009)

Biological target: SUMO-conjugating enzyme UBC9 (Homo sapiens) (UniProt P63279)
Test: inhibitors of in vitro SUMOylation cascade, primary screen, biochemical, HTRF, uHTS (AID 2006)
Details: HTRF SUMOylation assay, SAE1/SAE2 + UBC9, in vitro

SUMO-conjugating enzyme UBC9 (Homo sapiens), sequence (P63279 whole entry, looked up): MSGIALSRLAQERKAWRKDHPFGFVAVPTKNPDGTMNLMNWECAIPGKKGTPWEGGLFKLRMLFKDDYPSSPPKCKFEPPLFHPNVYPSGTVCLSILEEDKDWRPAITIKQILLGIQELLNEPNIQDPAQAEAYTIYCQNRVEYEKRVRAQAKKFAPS

| IC50 | SMILES |
| --- | --- |
| 13.8 µM | NS(=O)(=O)c1ccc(NC(=O)c2ccc(-c3ccccc3)cc2)cc1 |
| 37.9 µM | O=C(CN1C(=O)S/C(=C\c2ccccc2)C1=O)NNC(=O)c1ccccc1O |
| 14 µM | O=C1NC(=Nc2ccc3ccccc3c2)S/C1=C/c1ccco1 |
| 11.1 µM | O=C(O)c1ccc(/C=N/NC(=O)c2ccc(CN3c4cccc5cccc(c45)S3(=O)=O)cc2)cc1 |
